Results from patent US20150374676A1, “HELICASE-PRIMASE INHIBITORS FOR USE IN A METHOD OF TREATING ALZHEIMER'S DISEASE” (AICURIS GMBH & CO. KG, priority 2013, published 2015).
Like-named read-outs stand apart in the source and are kept apart here.

Key:
[1] = Multiple-dose escalation, steady state pharmacokinetics in healthy volunteers; assay type: in vivo, human; conditions: for Ctrough: free base in plasma; for AUC / Cmax: human, plasma, oral
Text: For three doses of the mono mesylate monohydrate salt of N-[5-(aminosulfonyl)-4-methyl-1,3-thiazol-2-yl]-N-methyl-2-[4-(2-pyridinyl)phenyl]acetamide in formulations in accordance with table a, wherein the particle size distribution is preferably defined by d(0.1) from 2 to 100 μm, d(0.5) from 30 to 210 μm and d(0.9) from 70 to 400 μm with a specific surface area of the particles less than 1.0 m^2/g, and more preferably defined by d(0.1) from 10 to 75 μm, d(0.5) from 100 to 175 μm, d(0.9) from 200 to 350 μm with a specific surface area of the particles less than 0.3 m^2/g, investigated (5, 25, and 100 mg as free base equivalent; once per day oral administration, […]), the individual concentration-time curves of the free base N-[5-(aminosulfonyl)-4-methyl-1,3-thiazol-2-yl]Nmethyl-2-[4-(2-pyridinyl)phenyl]acetamide at day 1 (after the first administration) were very similar in their general shape and slope to those profiles obtained in the single dose escalation trial (see Example a).
At steady state, there was a low inter-individual variability of minimal or “trough” concentrations with CVs (coefficient of variations) between 16.7 and 21.7% (day 21). For all doses, the individual and mean concentration-time curves of the free base of N-[5-(aminosulfonyl)-4-methyl-1,3-thiazol-2-yl]-N-methyl-2-[4-(2-pyridinyl)phenyl]acet-amide at day 21 were very similar in their shape and slope to those profiles obtained at day 1.
Table c: Steady state pharmacokinetic parameters of the free base N-[5-(aminosulfonyl)-4-methyl-1,3-thiazol-2-yl]-N-methyl-2-[4-(2-pyridinyl)phenyl]acetamide at day 21 after daily administrations of 5, 25, or 100 mg as free base equivalent of the mono mesylate monohydrate salt of N-[5-(aminosulfonyl)-4-methyl-1,3-thiazol-2-yl]-N-methyl-2-[4-(2-pyridinyl)phenyl]acetamide in formulations in accordance with table a, wherein the particle size distribution is preferably defined by d(0.1) from 2 to 100 μm, d(0.5) from 30 to 210 μm and d(0.9) from 70 to 400 μm with a specific surface area of the particles less than 1.0 m^2/g, and more preferably defined by d(0.1) from 10 to 75 μm, d(0.5) from 100 to 175 μm, d(0.9) from 200 to 350 μm with a specific surface area of the particles less than 0.3 m^2/g, to healthy volunteers (n=12 per dose).

[2] = fraction unbound in murine plasma; assay type: in vitro ADME; conditions: mouse
[3] = fraction unbound in cell culture medium; assay type: in vitro ADME
[4] = Multiple-dose escalation, steady state pharmacokinetics in healthy volunteers; assay type: in vivo, human; conditions: steady state after once daily single doses for 21 days
[5] = 5 mg free base equivalent once daily, day 21 steady state, healthy volunteers n=12
[6] = 25 mg free base equivalent once daily, day 21 steady state, healthy volunteers n=12
[7] = 100 mg free base equivalent once daily, day 21 steady state, healthy volunteers n=12

`CS(=O)(=O)O.Cc1nc(N(C)C(=O)Cc2ccc(-c3ccccn3)cc2)sc1S(N)(=O)=O` [mono mesylate monohydrate salt, N-[5-(aminosulfonyl)-4-methyl-1,3-thiazol-2-yl]-N-methyl-2-[4-(2-pyridinyl)-phenyl]acetamide mono methanesulfonic acid monohydrate] gave a Cav [1, 5] of 213 ng/mL, a t1/2z [1, 5] of 82.6 h and a Ctrough [1, 5] of 187 ng/mL. The t1/2z on average ([1]; 25 mg dosage as free base equivalent, steady state after once daily single doses for 21 days) was 69 ± 6 h, the Cav [1, 6] was 977 ng/mL and the “Cmax,ss” value [1, 6] was 1358 ng/mL. The t1/2z [1, 6] was 68.6 h, the AUCτ ([1]; 25 mg free base equivalent once daily, day 21 steady state, healthy volunteers n=12, dosing interval 24 hours) was 23430 ng·h/mL and the Ctrough [1, 6] was 832 ng/mL. The Cav [1, 7] was 4540 ng/mL, the “Cmax,ss” value [1, 7] was 6358 ng/mL and the t1/2z [1, 7] was 59.8 h. The AUCτ ([1]; 100 mg free base equivalent once daily, day 21 steady state, healthy volunteers n=12, dosing interval 24 hours) was 108800 ng·h/mL, the Ctrough [1, 7] was 3743 ng/mL and the t1/2z on average ([1]; 200 mg dosage as free base equivalent, steady state after once daily single doses for 21 days) was 57.19 ± 5.451 h. For the same compound, the “dose dependence of AUC0-24h and Cmax at day 1” value ([1]; 5, 25, 100 mg free base equivalent, after the first administration) was “dose-proportional increases”, the “dose dependence of exposure at steady state (Ctrough, AUCτ, Cmax,ss, Cav)” value ([1]; 5, 25, 100 mg once daily) was “dose-proportional increase” and the “accumulation ratio R for AUC and Cmax” value ([1]; all doses applied (5, 25, 100 mg once daily)) was roughly 5. For the same compound, the “apparent total clearance (CL/F)” value ([1]; all doses investigated (5, 25, 100 mg once daily), steady state) was 0.99 to 1.08 L/h, the AUC ([1]; 200 mg, 100 mg dosage as free base equivalent, steady state after once daily single doses for 21 days, read-out: AUCτ,ss) was 168000 ± 38000 ng·h/mL and the AUC ([1]; 5 mg free base equivalent once daily, day 21 steady state, healthy volunteers n=12, dosing interval 24 hours, read-out: AUCτ) was 5090 ng·h/mL. It also gave a Cmax ([1]; 5 mg free base equivalent once daily, day 21 steady state, healthy volunteers n=12, read-out: Cmax,ss) of 301 ng/mL, a Cmax ([1]; 100 mg dosage as free base equivalent, steady state after once daily single doses for 21 days, read-out: mean maximum blood plasma concentration at steady state (mean Cmax,ss) of the free base) of 6360 ± 1700 ng/mL and a Cmax ([1]; 200 mg dosage as free base equivalent, steady state after once daily single doses for 21 days, read-out: mean maximum blood plasma concentration at steady state (mean Cmax,ss) of the free base) of 9990 ± 2610 ng/mL. The fraction unbound [2] was 0.028, the fraction unbound [3] was 0.71 and the t1/2z on average ([4]; 100 mg dosage as free base equivalent) was 60 ± 4 h. For the same compound, the AUC ([4]; human, plasma, oral, 25 mg dosage as free base equivalent) was 23400 ± 3020 ng·h/mL, the Cmax ([4]; human, plasma, oral, 25 mg dosage as free base equivalent, read-out: mean maximum blood plasma concentration at steady state (mean Cmax,ss) of the free base) was 1360 ± 167 ng/mL and the AUC ([4]; human, plasma, oral, 100 mg dosage as free base equivalent) was 109000 ± 28600 ng·h/mL.
